Measured values reported in patent publication US10828316B2, “Method of treating bacterial infections” (priority 2016, dated 2020).
≈ marks a conversion by molar mass, not a printed value. Like-named read-outs stand apart in the source and are kept apart here.

Experiments:
P. aeruginosa EN0004 = assay: MIC; assay type: cell-based; conditions: in AZT+trimethoprim+uridine combination
A. baumannii EN0007 = assay: MIC; assay type: cell-based, A. baumanii; conditions: in AZT+trimethoprim+uridine combination
S. aureus strain no 13 = assay: MIC; conditions: Staphylococcus aureus, NO13, read-out: MIC of AZT
E. coli EN013 = assay: MIC; assay type: cell-based, Escherichia coli; conditions: Escherichia coli, EN013, E. coli EN013
A. baumannii strain no 3 = assay: MIC; assay type: cell-based, Acinetobacter baumannii; conditions: for MIC of AZT: A. baumannii strain no 3
K. pneumoniae EN011 = assay: MIC; assay type: cell-based, Klebsiella pneumoniae; conditions: Klebsiella pneumoniae, EN011, K. pneumoniae EN011; Combination 1 (AZT+trimethoprim+uridine)
E. coli ATCC 25922 = assay: MIC, in vitro sensitivity of the strain used in vivo; conditions: Escherichia coli, ATCC25922, read-out: MIC against E. coli ATCC 25922
[1] = system: P. aeruginosa strain no 10; assay: MIC; assay type: cell-based, Pseudomonas aeruginosa; conditions: for MIC of AZT: P. aeruginosa strain no 10
E. coli strain no 5 = assay: MIC; assay type: cell-based; conditions: Escherichia coli, NO5, read-out: MIC of AZT
E. coli strain no 2 = assay: MIC; conditions: Escherichia coli

Cc1cn([C@H]2C[C@H](N=[N+]=[N-])[C@@H](CO)O2)c(=O)[nH]c1=O [AZT, 3′-azido-3′-deoxythymidine]
MIC (P. aeruginosa EN0004): >4 µg/mL | MIC (A. baumannii EN0007): >4 µg/mL | MIC (S. aureus strain no 13): > 150 µg/mL | MIC (E. coli EN013; Combination 1 (AZT+trimethoprim+uridine)): < 0.008 µg/mL | MIC (E. coli EN013; Combination 2 (same mixed with thymidine)): < 0.008 µg/mL | MIC (E. coli EN013; in AZT+trimethoprim+uridine combination): < 0.008 µg/mL | MIC of AZT (A. baumannii strain no 3; uridine 10 μg/ml): >150 µg/mL | MIC of AZT (A. baumannii strain no 3; uridine 50 μg/ml): >150 µg/mL | MIC of AZT (A. baumannii strain no 3; uridine 100 μg/ml): >150 µg/mL | MIC of AZT (A. baumannii strain no 3; uridine 200 μg/ml): >150 µg/mL | MIC (A. baumannii strain no 3; Acinetobacter baumannii, NO3, read-out: MIC of AZT): > 150 µg/mL | MIC (K. pneumoniae EN011): 0.032 µg/mL | MIC (E. coli ATCC 25922): > 2 µg/mL | MIC of AZT ([1]; uridine 10 μg/ml): >150 µg/mL | MIC of AZT ([1]; uridine 50 μg/ml): >150 µg/mL | MIC of AZT ([1]; uridine 100 μg/ml): >150 µg/mL | MIC of AZT ([1]; uridine 200 μg/ml): >150 µg/mL | MIC ([1]; Pseudomonas aeruginosa, NO10, read-out: MIC of AZT): > 150 µg/mL | MIC (E. coli strain no 5): 4 to 8 µg/mL | log diff peritoneum vs start of treatment (E. coli; AZT 30 mg/kg): 0.38 | mean log peritoneum (E. coli; AZT 30 mg/kg): 5.68 | score at sampling (E. coli; AZT 30 mg/kg, single mice): 1 | inhibition in mice infected with E. coli (E. coli; murine peritonitis model): slight inhibition | MIC (E. coli strain no 2; NO2, E. coli strain 2, 5 uM thymidine, uridine 0 μg/ml): > 30 µg/mL | MIC (E. coli strain no 2; NO2, E. coli strain 2, 5 uM thymidine, uridine 10 μg/ml): 25 to 30 µg/mL (≈ 93.5 to 112 µM) | MIC (E. coli strain no 2; NO2, E. coli strain 2, 5 uM thymidine, uridine 100 μg/ml): 10 to 20 µg/mL (≈ 37.4 to 74.8 µM) | MIC (E. coli strain no 2; NO2, read-out: MIC AZT, E. coli strain 2, thymidine 0 μM, uridine 0): 20 to 30 µg/mL (≈ 74.8 to 112 µM) | MIC (E. coli strain no 2; NO2, read-out: MIC AZT, E. coli strain 2, thymidine 0 μM, uridine 100 μg/ml): 5 to 10 µg/mL (≈ 18.7 to 37.4 µM) | MIC (E. coli strain no 2; NO2, read-out: MIC AZT, E. coli strain 2, thymidine 10 μM, uridine 0): > 30 µg/mL | MIC (E. coli strain no 2; NO2, read-out: MIC AZT, E. coli strain 2, thymidine 10 μM, uridine 100 μg/ml): > 30 µg/mL | MIC (E. coli strain no 2; NO2, read-out: MIC AZT, E. coli strain 2, thymidine 10 μM, uridine 100 and trimethoprim 1 μg/ml): 0.1 to 0.5 µg/mL (≈ 0.374 to 1.87 µM) | MIC (E. coli strain no 2; NO2, read-out: MIC AZT, E. coli strain 2, thymidine 30 μM, uridine 0): > 30 µg/mL | MIC (E. coli strain no 2; NO2, read-out: MIC AZT, E. coli strain 2, thymidine 30 μM, uridine 100 μg/ml): > 30 µg/mL | MIC (E. coli strain no 2; NO2, read-out: MIC of AZT, E. coli strain no 2, trimethoprim 0.5 μg/ml, uridine 0 μg/ml): 0.012 to 0.025 µg/mL | MIC (E. coli strain no 2; NO2, read-out: MIC of AZT, E. coli strain no 2, trimethoprim 0.5 μg/ml, uridine 1 μg/ml): ≤ 0.006 µg/mL | MIC (E. coli strain no 2; NO2, read-out: MIC of AZT, E. coli strain no 2, trimethoprim 0.5 μg/ml, uridine 10 μg/ml): 0.05 to 0.1 µg/mL | MIC (E. coli strain no 2; NO2, read-out: MIC of AZT, E. coli strain no 2, trimethoprim 0.5 μg/ml, uridine 100 μg/ml): 0.025 to 0.05 µg/mL | MIC (E. coli strain no 2; NO2, read-out: MIC of AZT, E. coli strain no 2, trimethoprim 0.5 μg/ml, uridine 200 μg/ml): 0.012 to 0.025 µg/mL | MIC (E. coli strain no 2; NO2, read-out: MIC of AZT, E. coli strain no 2, trimethoprim 1 μg/ml, uridine 0 μg/ml): 0.012 to 0.025 µg/mL | MIC (E. coli strain no 2; NO2, read-out: MIC of AZT, E. coli strain no 2, trimethoprim 1 μg/ml, uridine 1 μg/ml): ≤ 0.006 µg/mL | MIC (E. coli strain no 2; NO2, read-out: MIC of AZT, E. coli strain no 2, trimethoprim 1 μg/ml, uridine 10 μg/ml): ≤ 0.006 µg/mL | MIC (E. coli strain no 2; NO2, read-out: MIC of AZT, E. coli strain no 2, trimethoprim 1 μg/ml, uridine 100 μg/ml): 0.025 to 0.05 µg/mL | MIC (E. coli strain no 2; NO2, read-out: MIC of AZT, E. coli strain no 2, trimethoprim 1 μg/ml, uridine 200 μg/ml): 0.012 to 0.025 µg/mL | MIC (E. coli strain no 2; NO2, read-out: MIC of AZT, E. coli strain no 2, trimethoprim 2 μg/ml, uridine 0 μg/ml): 0.006 to 0.012 µg/mL | MIC (E. coli strain no 2; NO2, read-out: MIC of AZT, E. coli strain no 2, trimethoprim 2 μg/ml, uridine 1 μg/ml): ≤ 0.006 µg/mL | MIC (E. coli strain no 2; NO2, read-out: MIC of AZT, E. coli strain no 2, trimethoprim 2 μg/ml, uridine 10 μg/ml): ≤ 0.006 µg/mL | MIC (E. coli strain no 2; NO2, read-out: MIC of AZT, E. coli strain no 2, trimethoprim 2 μg/ml, uridine 100 μg/ml): 0.012 to 0.025 µg/mL | MIC (E. coli strain no 2; NO2, read-out: MIC of AZT, E. coli strain no 2, trimethoprim 2 μg/ml, uridine 200 μg/ml): 0.006 to 0.012 µg/mL | MIC (E. coli strain no 2; NO2, read-out: MIC of AZT, E. coli strain no 2, uridine 0 μg/ml): 20 to 25 µg/mL | MIC (E. coli strain no 2; NO2, read-out: MIC of AZT, E. coli strain no 2, uridine 10 μg/ml): 20 to 25 µg/mL | MIC (E. coli strain no 2; NO2, read-out: MIC of AZT, E. coli strain no 2, uridine 50 μg/ml): 15 to 20 µg/mL | MIC (E. coli strain no 2; NO2, read-out: MIC of AZT, E. coli strain no 2, uridine 100 μg/ml): 5 to 15 µg/mL | MIC (E. coli strain no 2; NO2, read-out: MIC of AZT, E. coli strain no 2, uridine 200 μg/ml): 5 to 15 µg/mL | MIC (E. coli strain no 2; NO2, read-out: MIC of AZT, Table 3, E. coli strain no 2, trimethoprim 0, uridine 0 μg/ml): 20 to 25 µg/mL | MIC (E. coli strain no 2; NO2, read-out: MIC of AZT, Table 3, E. coli strain no 2, trimethoprim 0, uridine 1 μg/ml): 10 to 20 µg/mL | MIC (E. coli strain no 2; NO2, read-out: MIC of AZT, Table 3, E. coli strain no 2, trimethoprim 0, uridine 10 μg/ml): 10 to 20 µg/mL | MIC (E. coli strain no 2; NO2, read-out: MIC of AZT, Table 3, E. coli strain no 2, trimethoprim 0, uridine 100 μg/ml): 2 to 10 µg/mL | MIC (E. coli strain no 2; NO2, read-out: MIC of AZT, Table 3, E. coli strain no 2, trimethoprim 0, uridine 200 μg/ml): 2 to 10 µg/mL
